{
  "source": "paper PMC6346587",
  "about": "“Glucose 6-phosphate dehydrogenase 6-phosphogluconolactonase: characterization of the Plasmodium vivax enzyme and inhibitor studies” (Malaria Journal, 2019)",
  "key": {"PvG6PD": {"biological_target": "PvG6PD (Plasmodium vivax, UniProt A5K3M1)", "sequence (A5K3M1 entry or part of it)": "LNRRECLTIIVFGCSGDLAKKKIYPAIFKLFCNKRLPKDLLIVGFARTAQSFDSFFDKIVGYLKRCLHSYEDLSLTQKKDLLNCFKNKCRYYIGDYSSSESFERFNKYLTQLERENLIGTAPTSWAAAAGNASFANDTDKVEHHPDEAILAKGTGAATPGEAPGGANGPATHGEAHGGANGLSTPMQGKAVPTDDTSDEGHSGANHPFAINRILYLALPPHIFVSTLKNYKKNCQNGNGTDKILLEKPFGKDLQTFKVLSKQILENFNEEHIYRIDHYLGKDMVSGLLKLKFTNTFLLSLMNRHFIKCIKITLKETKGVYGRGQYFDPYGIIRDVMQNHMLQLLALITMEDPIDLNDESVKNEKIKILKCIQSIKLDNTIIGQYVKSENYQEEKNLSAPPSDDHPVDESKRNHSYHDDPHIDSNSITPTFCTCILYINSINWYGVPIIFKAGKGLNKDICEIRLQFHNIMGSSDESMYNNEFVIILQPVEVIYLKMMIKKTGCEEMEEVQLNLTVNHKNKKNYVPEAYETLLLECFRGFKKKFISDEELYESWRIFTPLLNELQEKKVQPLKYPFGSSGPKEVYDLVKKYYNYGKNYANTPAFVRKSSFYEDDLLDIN", "assay": "PvG6PD enzyme inhibition assay (NADPH formation, absorbance 340 nm / fluorescence)", "format": "biochemical", "details": "for IC50: read-out: IC50 on PvG6PD", "method": "The G6PD activity of PfGluPho variants was measured spectrophotometrically as described for the wt enzyme. Kinetic characterization of PvG6PD was performed using the same assay system at an Evolution 300 spectrophotometer (Thermo Scientific, Dreieich, Germany). In brief, the initial reduction of NADP^+ to NADPH by PvG6PD was monitored by measuring the absorbance at 340 nm. The 500 µL reaction mixture contained 200 µM NADP^+ and varying concentrations of PvG6PD in an assay buffer of 100 mM Tris–HCl, pH 8.0, 10 mM MgCl2, and 0.5 mM EDTA at 25 °C. The reaction was started by adding 800 µM G6P. The KM for NADP^+ was determined by titrating NADP^+ from 2 to 400 µM at 800 µM G6P; the KM for G6P was measured accordingly by titrating G6P from 2 to 1200 µM at 200 µM NADP^+. KM values were calculated using GraphPad Prism. Since the KM for G6P was considerably higher than the value measured for PfGluPho [14], a concentration of 800 µM G6P was defined as substrate saturation for PvG6PD.\n(§1) To identify potential inhibitors of PvG6PD, compounds with already known effects on PfGluPho (ellagic acid and derivatives, ML304) were tested. Additionally, several compound libraries of the Helmholtz Center for Infection Research, Brunswick, were screened against PfGluPho using the high-throughput-compatible assay systems described in Preuss et al.. […] Based on structure-activity relationship studies, a set of new potential G6PD inhibitors (Fig. 8) was then synthesized and assessed. First, the IC50 values of the compounds were determined, followed by mechanistic characterization of the mode of action. To test for selectivity of the compounds, the IC50 values of the compounds on PvG6PD, PfGluPho, and hG6PD were determined in parallel.\n(§2) All measurements were performed in 96-well plates, half area (Greiner Bio-One, Frickenhausen, Germany) using a Tecan Infinite M200 plate reader (Maennedorf, Switzerland). The compounds were dissolved in 100% DMSO and afterwards diluted in assay buffer to the required concentrations. Different compound concentrations were added to a mixture of enzyme and NADP^+ in assay buffer. Concentrations of substrates differed depending on the enzyme; an overview is given in the Additional file 4. The reaction was started by adding G6P, and the increase of NADPH was monitored by measuring the absorbance at 340 nm. To increase the sensitivity of the assay, some measurements were reproduced, detecting the fluorescence of NADPH at ex340/em460. […] A negative control containing no compound was defined as 0% inhibition; a positive control lacking the substrate G6P was defined as 100% inhibition. For evaluations using GraphPad Prism and Microsoft Excel, only a linear increase in absorbance/fluorescence was considered. For the mechanistic characterization of the compounds, either NADP^+ or G6P were titrated at different compound concentrations around the IC50, while keeping the second substrate in saturation. The initial slope was plotted as Michaelis–Menten curves and Lineweaver–Burk plots using GraphPad Prism; KM values and Vmax were calculated with GraphPad Prism software."}, "Plasmodium gametocytes": {"system": "Plasmodium gametocytes", "details": "cited from earlier work"}, "[1]": {"system": "human hepatocyte cell lines", "set-up": "method as in PMID 24501782", "details": "cited from earlier work"}, "P. falciparum Dd2": {"system": "P. falciparum Dd2", "set-up": "method as in PMID 24501782", "details": "CQ resistant strain; cited from earlier work"}, "hG6PD": {"biological_target": "T1, hG6PD (Homo sapiens, UniProt P11413)", "T1 construct": "made in house", "T1 sequence (P11413 whole entry)": "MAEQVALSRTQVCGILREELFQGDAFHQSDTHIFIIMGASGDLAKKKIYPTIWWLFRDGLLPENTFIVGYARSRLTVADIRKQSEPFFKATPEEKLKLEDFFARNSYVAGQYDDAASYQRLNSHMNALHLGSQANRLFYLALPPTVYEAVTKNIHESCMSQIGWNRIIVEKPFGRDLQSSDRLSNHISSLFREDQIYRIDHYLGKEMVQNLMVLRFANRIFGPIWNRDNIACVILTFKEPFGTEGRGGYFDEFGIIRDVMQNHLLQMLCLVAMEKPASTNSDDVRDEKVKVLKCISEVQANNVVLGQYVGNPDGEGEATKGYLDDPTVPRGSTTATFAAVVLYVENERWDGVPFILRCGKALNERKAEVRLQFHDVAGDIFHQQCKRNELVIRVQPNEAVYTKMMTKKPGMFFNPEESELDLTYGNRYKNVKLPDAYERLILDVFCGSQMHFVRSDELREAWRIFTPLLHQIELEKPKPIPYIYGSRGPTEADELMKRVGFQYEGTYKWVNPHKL", "details": "ML304; read-out: IC50 on human G6PD; cited from earlier work"}, "PfGluPho [2]": {"biological_target": "T2, PfGluPho (Plasmodium falciparum, UniProt Q8IKU0)", "T2 construct": "made in house", "T2 sequence (Q8IKU0 1-910)": "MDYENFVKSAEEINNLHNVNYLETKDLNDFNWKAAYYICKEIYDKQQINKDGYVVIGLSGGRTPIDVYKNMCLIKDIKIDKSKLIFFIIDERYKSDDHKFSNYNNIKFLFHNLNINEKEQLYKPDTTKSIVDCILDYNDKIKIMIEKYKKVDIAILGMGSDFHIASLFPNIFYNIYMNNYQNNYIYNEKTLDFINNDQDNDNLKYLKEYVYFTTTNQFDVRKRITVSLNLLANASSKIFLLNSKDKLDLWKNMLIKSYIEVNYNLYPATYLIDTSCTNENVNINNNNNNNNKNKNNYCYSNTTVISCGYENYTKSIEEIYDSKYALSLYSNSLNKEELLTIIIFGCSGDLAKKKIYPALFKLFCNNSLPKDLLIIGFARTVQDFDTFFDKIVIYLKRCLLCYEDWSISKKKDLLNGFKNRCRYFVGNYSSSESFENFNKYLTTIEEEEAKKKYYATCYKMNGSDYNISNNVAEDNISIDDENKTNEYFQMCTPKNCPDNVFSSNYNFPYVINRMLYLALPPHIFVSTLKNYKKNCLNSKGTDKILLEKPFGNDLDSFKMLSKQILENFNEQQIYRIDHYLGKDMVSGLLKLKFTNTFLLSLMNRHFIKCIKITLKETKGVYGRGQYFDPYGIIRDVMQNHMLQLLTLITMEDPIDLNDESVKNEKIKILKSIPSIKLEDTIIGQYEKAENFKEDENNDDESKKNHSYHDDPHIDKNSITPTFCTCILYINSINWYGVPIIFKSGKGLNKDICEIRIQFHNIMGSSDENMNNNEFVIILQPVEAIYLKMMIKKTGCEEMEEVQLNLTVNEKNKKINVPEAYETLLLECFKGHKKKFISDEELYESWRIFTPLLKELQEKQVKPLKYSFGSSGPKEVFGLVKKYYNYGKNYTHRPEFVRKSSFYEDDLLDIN", "details": "ML304; read-out: IC50 on PfGluPho; cited from earlier work"}, "[3]": {"system": "cytosolic H2O2 levels of NF54-attB", "set-up": "method as in PMID 28874682", "details": "roGFP2-Orp1 probe, NF54-attB blood stages; cited from earlier work"}, "P. falciparum 3D7": {"system": "P. falciparum 3D7", "details": "chloroquine-sensitive strain; cited from earlier work"}, "PfGluPho [4]": {"biological_target": "T2, PfGluPho", "assay": "PfGluPho G6PD activity inhibition assay", "format": "biochemical", "method": "as §1, §2"}},
  "note": "“And” between values parts separate entries of the source, which are not always exact repeats. Equal values may be shown once. Read-outs that look alike come from different tables or passages of the source.",
  "data": [
    {"compound": "CCN1CCC[C@@H]1CNC(=O)c1ccc2c(c1)NC(=O)c1cccc(C)c1S2", "note": "[ML304]", "values": [
      {"measurement": "Type of inhibition of PvG6PD towards G6P", "setting": "PvG6PD; G6P titrated", "value": "competitive inhibitor"},
      {"measurement": "Type of inhibition of PvG6PD towards NADP+", "setting": "PvG6PD; NADP+ titrated", "value": "mixed type inhibitor"},
      {"measurement": "Ki", "setting": "PvG6PD; competitive towards G6P, read-out: Ki on PvG6PD towards G6P", "value": "700 ± 300", "unit": "nM"},
      {"measurement": "Ki", "setting": "PvG6PD; mixed type towards NADP+, read-out: Ki on PvG6PD towards NADP+", "value": "16300 ± 8800", "unit": "nM"},
      {"measurement": "IC50", "setting": "PvG6PD; substrate saturation (800 µM G6P, 200 µM NADP+)", "value": "15300 ± 900", "unit": "nM"},
      {"measurement": "IC50", "setting": "PvG6PD; substrates close to KM (85 µM G6P, 15 µM NADP+)", "value": "2600 ± 800", "unit": "nM"},
      {"measurement": "Effect on viability of Plasmodium gametocytes", "setting": "Plasmodium gametocytes", "value": "strongly impair the viability"},
      {"measurement": "Interaction with methylene blue on late stage gametocytes", "setting": "Plasmodium gametocytes", "value": "synergistic effects"},
      {"measurement": "LD50 against human hepatocyte cell lines", "setting": "[1]", "value": "> 50", "unit": "µM"},
      {"measurement": "Active concentration on P. falciparum Dd2 in cell culture", "setting": "P. falciparum Dd2", "value": "about 5 µM"},
      {"measurement": "IC50", "setting": "hG6PD", "value": "80000 nM and > 80000 nM"},
      {"measurement": "IC50", "setting": "PfGluPho [2]", "value": 190, "unit": "nM"},
      {"measurement": "Effect on cytosolic H2O2 levels", "setting": "[3]", "value": "significantly increase"},
      {"measurement": "Active concentration on P. falciparum 3D7 in cell culture", "setting": "P. falciparum 3D7", "value": "lower than 1 µM"},
      {"measurement": "Type of inhibition of PfGluPho towards G6P", "setting": "PfGluPho [4]; G6P titrated", "value": "competes with G6P"},
      {"measurement": "Type of inhibition of PfGluPho towards NADP+", "setting": "PfGluPho [4]; NADP+ titrated", "value": "non-competitive inhibitor"},
      {"measurement": "Ki", "setting": "PfGluPho [4]; competes with G6P, read-out: Ki on PfGluPho towards G6P", "value": "230 ± 160", "unit": "nM"}
    ]}
  ]
}
